Patent US7015202B2, “Use of glycyrrhizin and its derivatives as MCP-1 production inhibitors” (Minophagen Pharmaceutical Co., Ltd., priority 2002, dated 2006)

Columns and labels:
MCP-1 [1] = assay: MCP-1 production by IL-10-stimulated peripheral blood mononuclear cells (ELISA); type: cell-based, human; settings: PBMC from healthy individuals, 20 ng/ml IL-10, compound 100 μg/ml, 24 hours, FIG. 1
Description: Peripheral blood was collected from health individuals and the fraction containing peripheral blood mononuclear cells (PBMC) was isolated with Ficoll-Hypaque. Monocytes were inoculated into each well of a 96-well flat-bottom microtiter plate at a concentration of 1×10^6 cells/ml. RPMI1640 medium containing 10% FCS and antibiotics (penicillin and streptomycin) was used for culturing. The cells were cultured using an incubator maintained at a temperature of 37° C. and CO2 concentration of 5%. The cells were stimulated by addition of 20 ng/ml of IL-10 (acquired from PeproTech) to each well, and a solution of glycyrrhizin or its derivatives was added at a concentration of 100 μg/ml to all wells except the control well, after which culturing was continued for 24 hours. Following addition of glycyrrhizin, the culture supernatant was recovered and the amount of MCP-1 in the supernatant was quantified by ELISA. A commercially available kit (trade name: Human MCP-1 BD OptEIA ELISA Kit) was used for ELISA.

MCP-1 [2] = assay: MCP-1 production by peripheral blood mononuclear cells from AIDS patients (ELISA); type: cell-based, human; settings: 0.1 to 100 μg/ml, 24 hours, FIG. 3
Description: Peripheral blood was collected from AIDS patients and the fraction containing peripheral blood mononuclear cells was isolated using Ficoll-Hypaque. Mononuclear cells were inoculated into each well of a 96-well flat-bottom microtiter plate at a concentration of 1×10^6 cells/ml. The medium was the same as that used in Example 1. The cells were cultured using an incubator maintained at a temperature of 37° C. and CO2 concentration of 5%.
Glycyrrhizin solution was added to each well except the control well at a final concentration of 0.1 to 100 μg/ml followed by culturing for 24 hours.
Following addition of glycyrrhizin, the culture supernatant was recovered and the amount of MCP-1 in the supernatant was quantified by ELISA. A commercially available kit (trade name: Human MCP-1 BD OptEIA ELISA Kit) was used for ELISA.

HIV [3] = settings: reported in recent years; cited from earlier work
HIV [4] = settings: 150 to 225 mg (6 to 9 tablets) per day, asymptomatic carriers (AC); cited from earlier work
MCP-1 [5] = assay: MCP-1 production by peripheral blood mononuclear cells from burn patients (ELISA); type: cell-based, human; settings: 100 μg/ml, 24 hours, FIG. 2
Description: Experimental Method Peripheral blood was collected from burn patients (third-degree burns covering 45–78% of the body surface), and peripheral blood mononuclear cells were isolated with Ficoll-Hypaque. 1×10^6 cells/ml of the peripheral blood mononuclear cells were stimulated for 24 hours with 100 μg/ml of glycyrrhizin. Furthermore, mononuclear cells from healthy subjects were cultured under the same conditions for the control. The amount of MCP-1 in the culture supernatant was measured with the Human MCP-1 BD OptEIA ELISA Kit.

HSV-1 = assay: Sensitivity to HSV-1 infection in burn mice; type: in vivo
Description: Experimental Method One day after subjecting normal mice and MCP-1 knockout mice to third degree burns over 15% of their body surface area, the animals were intraperitoneally infected with HSV-1 in an amount of 1×10^1 to 1×10^6 pfu/kg body weight. For the control, normal mice were infected with HSV-1 under the same conditions. In addition, MCP-1 (50 ng/mouse) was administered subcutaneously to normal mice 2 hours before infection and 12 and 24 hours after infection. Anti-MCP-1 monoclonal antibody (10 μg/mouse) was administered subcutaneously to the burn mice 2 hours before infection and 12 and 24 hours after infection.

CC1(C)[C@@H](O[C@H]2O[C@H](C(=O)O)[C@@H](O)[C@H](O)[C@H]2O[C@@H]2O[C@H](C(=O)O)[C@@H](O)[C@H](O)[C@H]2O)CC[C@]2(C)[C@H]3C(=O)C=C4[C@@H]5C[C@@](C)(C(=O)O)CC[C@]5(C)CC[C@@]4(C)[C@]3(C)CC[C@@H]12.N [glycyrrhizin, monoammonium glycyrrhizinate]
production of MCP-1 induced by IL-10 (MCP-1 [1]): inhibiting the production of MCP-1 induced by IL-10
production of MCP-1 by mononuclear cells from AIDS patients (MCP-1 [2]): production of MCP-1 was found to be inhibited
intracellular growth of HIV (HIV [3]): inhibits the intracellular growth of HIV
survival without the onset of AIDS (HIV [4]): ≥ 10 years
production of MCP-1 by mononuclear cells from burn patients (MCP-1 [5]): effectively inhibited the production of MCP-1
infection sensitivity to HSV-1 infection (HSV-1; burn mice (third degree burns, 15% of body surface), HSV-1 intraperitoneal, FIG. 4): recover to the same level as normal mice

MCP-1: monocyte chemoattractant protein-1, a CC chemokine composed of 76 amino acids
infection sensitivity to HSV-1 infection (HSV-1; normal mice dosed MCP-1 50 ng/mouse subcutaneously 2 hours before and 12 and 24 hours after infection): 100 times higher as compared with
